This note sets out measurements from ChEMBL document CHEMBL4017483, “Potent and selective oxytocin receptor agonists without disulfide bridges” (Bioorg Med Chem Lett, 2017).

For experiment [1], the target named is T1, Oxytocin receptor (Homo sapiens, UniProt P30559).
T1 sequence (P30559 whole entry): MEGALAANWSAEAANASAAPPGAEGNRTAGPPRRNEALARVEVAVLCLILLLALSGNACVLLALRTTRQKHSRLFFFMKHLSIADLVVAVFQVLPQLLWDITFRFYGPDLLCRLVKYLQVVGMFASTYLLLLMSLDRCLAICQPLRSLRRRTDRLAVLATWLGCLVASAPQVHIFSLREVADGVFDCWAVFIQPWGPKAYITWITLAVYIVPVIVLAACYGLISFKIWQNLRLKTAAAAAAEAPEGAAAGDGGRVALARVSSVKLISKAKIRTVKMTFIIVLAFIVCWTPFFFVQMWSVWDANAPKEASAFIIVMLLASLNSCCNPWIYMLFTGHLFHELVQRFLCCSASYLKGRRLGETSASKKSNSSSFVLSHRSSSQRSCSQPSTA
Description: Agonist activity at human OTR expressed in CHO cells assessed as calcium mobilization measured after 30 mins by Fluo-4-AM dye based FLIPR assay. The class given is functional, cell-based.

In experiment [2] the target is Vasopressin V1a receptor (Homo sapiens, UniProt P37288). Description: Agonist activity at human V1a receptor expressed in CHO cells assessed as calcium mobilization measured after 30 mins by Fluo-4-AM dye based FLIPR assay. Format: cell-based.
Sequence of Vasopressin V1a receptor (P37288 whole entry): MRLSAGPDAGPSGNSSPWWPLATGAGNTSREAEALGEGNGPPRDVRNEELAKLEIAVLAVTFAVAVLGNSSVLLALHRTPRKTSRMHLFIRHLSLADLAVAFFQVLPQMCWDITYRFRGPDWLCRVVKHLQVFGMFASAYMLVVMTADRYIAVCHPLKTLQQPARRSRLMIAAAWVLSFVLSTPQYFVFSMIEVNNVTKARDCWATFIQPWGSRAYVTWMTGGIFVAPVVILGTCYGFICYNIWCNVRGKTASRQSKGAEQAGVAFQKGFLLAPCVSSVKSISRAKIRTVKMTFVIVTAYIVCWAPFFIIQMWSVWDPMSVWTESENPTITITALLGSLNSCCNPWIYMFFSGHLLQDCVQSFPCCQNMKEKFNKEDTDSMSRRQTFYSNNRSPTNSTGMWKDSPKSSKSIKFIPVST
Experiment [3] addresses T2, Vasopressin V1b receptor (Homo sapiens, UniProt P47901).
T2 sequence (P47901 whole entry): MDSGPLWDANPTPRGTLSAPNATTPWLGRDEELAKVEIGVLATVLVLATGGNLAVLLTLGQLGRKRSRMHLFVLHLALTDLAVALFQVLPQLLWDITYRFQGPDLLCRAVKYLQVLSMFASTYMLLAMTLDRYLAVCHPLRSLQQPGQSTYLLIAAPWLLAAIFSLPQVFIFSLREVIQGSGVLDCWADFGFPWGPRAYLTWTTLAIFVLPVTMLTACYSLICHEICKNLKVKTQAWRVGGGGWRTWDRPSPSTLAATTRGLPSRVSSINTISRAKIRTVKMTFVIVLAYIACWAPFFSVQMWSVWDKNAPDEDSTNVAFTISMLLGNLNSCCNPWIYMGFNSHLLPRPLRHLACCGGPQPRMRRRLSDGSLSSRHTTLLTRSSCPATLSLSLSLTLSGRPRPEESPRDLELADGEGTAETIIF
Description: Agonist activity at human V1b receptor expressed in CHO cells assessed as calcium mobilization measured after 30 mins by Fluo-4-AM dye based FLIPR assay. Format: cell-based.

The species named for experiment [4] is Homo sapiens. Description: Selectivity ratio of EC50 for human V1a receptor to EC50 for human OTR.
For experiment [5], the species on record is Homo sapiens. Description: Selectivity ratio of EC50 for human V1b receptor to EC50 for human OTR.

Each structure is given as a SMILES string. Numbered stars: 1 amine (or outer) side, 2 acyl side, 3 side chain; on linkers, the order of the positions; unused ones are H or OH. Bridge positions count the residues as written; N and C are the ends. Square brackets hold non-standard residues; d marks the D form. Peptide text beside a SMILES is read from it. Hyp = O=C(O)[C@@H]1C[C@@H](O)CN1; Suc = O=C(CCC(=O)[*:2])[*:1]; Dap = NC[C@H](N)C(=O)O; azaGly = NNC(=O)O; Mpa = O=C(O)CCS; Sar = CNCC(=O)O

As for `CC[C@H](C)[C@@H]1NC(=O)[C@H](Cc2ccc(O)cc2)NC(=O)CCSSC[C@@H](C(=O)N2CCC[C@H]2C(=O)N[C@@H](CC2CCCCC2)C(=O)NCC(N)=O)NC(=O)[C@H](CC(N)=O)NC(=O)[C@H](CCC(N)=O)NC1=O`, the EC50 in experiment [1] was 0.01 nM; in experiment [2], over 100 nM; in experiment [3], 1.4 nM. Further, the Ratio EC50 was over 1000 in experiment [4] and 140 in experiment [5].
For `CC[C@H](C)[C@@H]1NC(=O)[C@H](Cc2ccc(O)cc2)NC(=O)CCSSC[C@@H](C(=O)N[C@@H](CCCNC(=N)N)C(=O)N[C@@H](CC(C)C)C(=O)NCC(N)=O)NC(=O)[C@H](CC(N)=O)NC(=O)[C@H](CCC(N)=O)NC1=O` ([Mpa]YIQNCRLG-NH2; disulfide 1-6), the EC50 in experiment [1] was 1.5 nM; in experiment [2], over 100 nM; in experiment [3], over 100 nM. The Ratio EC50 in experiment [4] and in experiment [5] was over 10 each time.
`CC[C@H](C)[C@@H]1NC(=O)[C@H](Cc2ccc(O)cc2)NC(=O)CCSSC[C@@H](C(=O)N2CCC[C@H]2C(=O)N[C@@H](C)C(=O)NCC(N)=O)NC(=O)[C@H](CC(N)=O)NC(=O)[C@H](CCC(N)=O)NC1=O` ([Mpa]YIQNCPAG-NH2; disulfide 1-6): the concentration for a half-maximal effect (EC50) was determined as 0.021 nM in experiment [1], 4.2 nM in experiment [2] and 0.17 nM in experiment [3]. The Ratio EC50 in experiment [4] was 200; in experiment [5] it was 8.1.
With `CC[C@H](C)[C@@H]1NC(=O)[C@H](Cc2ccc(O)cc2)NC(=O)CCSSC[C@@H](C(=O)N[C@@H](CO)C(=O)N[C@@H](CC(C)C)C(=O)NCC(N)=O)NC(=O)[C@H](CC(N)=O)NC(=O)[C@H](CCC(N)=O)NC1=O` ([Mpa]YIQNCSLG-NH2; disulfide 1-6), the EC50 in experiment [1] is 0.082 nM; in experiment [2], over 100 nM; in experiment [3] it was over 100 nM. The Ratio EC50 in experiment [4] and in experiment [5] was over 1000 each time.
In the case of `CC[C@H](C)[C@@H]1NC(=O)[C@H](Cc2ccc(O)cc2)NC(=O)CCC(=O)NC[C@@H](C(=O)N2C[C@H](O)C[C@H]2C(=O)N[C@@H](CC(C)C)C(=O)NNC(N)=O)NC(=O)[C@H](CC(N)=O)NC(=O)[C@H](CCC(N)=O)NC1=O` (YIQN[Dap][Hyp]L[azaGly]-NH2; linker N-5 via Suc), the concentration giving a half-maximal response (EC50) is 0.031 nM in experiment [1], over 100 nM in experiment [2] and over 100 nM in experiment [3]. In addition, the Ratio EC50 in experiment [4] and in experiment [5] was over 1000 each time.
On to `CC[C@H](C)[C@@H]1NC(=O)[C@H](Cc2ccc(O)cc2)NC(=O)CCSSC[C@@H](C(=O)N[C@@H](CCC(=O)O)C(=O)N[C@@H](CC(C)C)C(=O)NCC(N)=O)NC(=O)[C@H](CC(N)=O)NC(=O)[C@H](CCC(N)=O)NC1=O` ([Mpa]YIQNCELG-NH2; disulfide 1-6), for which the values for the EC50 in experiment [1], in experiment [2] and in experiment [3] were 0.35 nM, over 100 nM and over 100 nM, respectively. Besides, the Ratio EC50 in experiment [4] and in experiment [5] was over 100 each time.
As for `CC[C@H](C)[C@@H]1NC(=O)[C@H](Cc2ccc(O)cc2)NC(=O)CCSSC[C@@H](C(=O)N2CCC[C@H]2C(=O)N[C@@H](CC(C)C)C(=O)NNC(N)=O)NC(=O)[C@H](CC(N)=O)NC(=O)[C@H](CCC(N)=O)NC1=O`, the EC50 in experiment [1] turned out to be 0.0075 nM; in experiment [2], 70 nM; in experiment [3], 7.3 nM. Also, the Ratio EC50 in experiment [4] was 9300; in experiment [5], 970.
For `CC[C@H](C)[C@@H]1NC(=O)[C@H](Cc2ccc(O)cc2)NC(=O)CCSSC[C@@H](C(=O)N2CCC[C@H]2C(=O)N[C@@H](CC(C)C)C(=O)N[C@@H](CCCNC(=N)N)C(N)=O)NC(=O)[C@H](CC(N)=O)NC(=O)[C@H](CCC(N)=O)NC1=O` ([Mpa]YIQNCPLR-NH2; disulfide 1-6), in that order: 0.53 nM, over 100 nM, over 100 nM, over 100 and over 100.
Take `CC[C@H](C)[C@@H]1NC(=O)[C@H](Cc2ccc(O)cc2)NC(=O)CCC(=O)NC[C@@H](C(=O)N2C[C@H](O)C[C@H]2C(=O)N[C@@H](CC(C)C)C(=O)NCC(N)=O)NC(=O)[C@H](CC(N)=O)NC(=O)[C@H](CCC(N)=O)NC1=O` (YIQN[Dap][Hyp]LG-NH2; linker N-5 via Suc): the 50% effective concentration (EC50) was 0.013 nM in experiment [1], over 100 nM in experiment [2] and over 100 nM in experiment [3]. The Ratio EC50 in experiment [4] and in experiment [5] was over 1000 in each case.
Regarding `CC[C@H](C)[C@@H]1NC(=O)[C@H](Cc2ccc(O)cc2)NC(=O)CCSSC[C@@H](C(=O)N(C)CC(=O)N[C@@H](CC(C)C)C(=O)NCC(N)=O)NC(=O)[C@H](CC(N)=O)NC(=O)[C@H](CCC(N)=O)NC1=O` ([Mpa]YIQNC[Sar]LG-NH2; disulfide 1-6), the figures for the EC50 in experiment [1], in experiment [2] and in experiment [3] were 0.0069 nM, over 100 nM and over 100 nM, respectively. Besides, the Ratio EC50 in experiment [4] and in experiment [5] was over 10000 in each case.
In the case of `CC[C@H](C)[C@@H]1NC(=O)[C@H](Cc2ccc(O)cc2)NC(=O)CCSSC[C@@H](C(=O)NCC(=O)N[C@@H](CC(C)C)C(=O)NCC(N)=O)NC(=O)[C@H](CC(N)=O)NC(=O)[C@H](CCC(N)=O)NC1=O` ([Mpa]YIQNCGLG-NH2; disulfide 1-6), the EC50 in experiment [1] is 0.013 nM; in experiment [2], over 100 nM; in experiment [3] it was over 100 nM. For the same molecule, the Ratio EC50 in experiment [4] and in experiment [5] was over 1000 in each case.
In the case of `CC[C@H](C)[C@@H]1NC(=O)[C@H](Cc2ccc(O)cc2)NC(=O)CCSSC[C@@H](C(=O)N2CCC[C@H]2C(=O)N[C@@H](CC(C)C)C(=O)NCC(N)=O)NC(=O)[C@H](C)NC(=O)[C@H](CCC(N)=O)NC1=O` ([Mpa]YIQACPLG-NH2; disulfide 1-6), the 50% effective concentration (EC50) in experiment [1] is 17 nM; in experiment [2], over 100 nM; in experiment [3], over 100 nM. Also, the Ratio EC50 in experiment [4] and in experiment [5] was over 5 in each case.
On to `CC[C@H](C)[C@@H]1NC(=O)[C@H](Cc2ccc(O)cc2)NC(=O)CCSSC[C@@H](C(=O)N2C[C@H](O)C[C@H]2C(=O)N[C@@H](CC(C)C)C(=O)NCC(N)=O)NC(=O)[C@H](CC(N)=O)NC(=O)[C@H](CCC(N)=O)NC1=O`, for which the EC50 in experiment [1] was 0.0053 nM; in experiment [2], over 100 nM; in experiment [3], over 100 nM. The Ratio EC50 in experiment [4] and in experiment [5] was over 10000 each time.
As to `CC[C@H](C)[C@@H]1NC(=O)[C@H](Cc2ccc(O)cc2)NC(=O)CCSSC[C@@H](C(=O)N2CCC[C@H]2C(=O)N[C@@H](CC(C)C)C(=O)NCC(N)=O)NC(=O)[C@H](CC(N)=O)NC(=O)[C@H](CC(C)C)NC1=O` ([Mpa]YILNCPLG-NH2; disulfide 1-6), the values for the EC50 in experiment [1], in experiment [2] and in experiment [3] were 0.78 nM, over 100 nM and 23 nM, respectively. The figures for the Ratio EC50 in experiment [4] and in experiment [5] were over 100 and 29, respectively.
`CC[C@H](C)[C@@H]1NC(=O)[C@H](Cc2ccc(O)cc2)NC(=O)CCSSC[C@@H](C(=O)N2CCC[C@H]2C(=O)N[C@@H](CO)C(=O)NCC(N)=O)NC(=O)[C@H](CC(N)=O)NC(=O)[C@H](CCC(N)=O)NC1=O` ([Mpa]YIQNCPSG-NH2; disulfide 1-6): the figures for the EC50 in experiment [1], in experiment [2] and in experiment [3] were 0.056 nM, over 100 nM and 0.65 nM, respectively. Moreover, the Ratio EC50 in experiment [4] was over 1000; in experiment [5], 12.
`CC[C@H](C)[C@@H]1NC(=O)[C@H](Cc2ccc(O)cc2)NC(=O)CCSSC[C@@H](C(=O)N2CCC[C@H]2C(=O)N[C@@H](CC(C)C)C(=O)N[C@@H](CCC(=O)O)C(N)=O)NC(=O)[C@H](CC(N)=O)NC(=O)[C@H](CCC(N)=O)NC1=O` ([Mpa]YIQNCPLE-NH2; disulfide 1-6): the 50% effective concentration (EC50) in experiment [1] was 9.5 nM; in experiment [2], over 100 nM; in experiment [3] it was over 100 nM. Further, the Ratio EC50 in experiment [4] and in experiment [5] was over 10 in each case.
As for `CCCCCC[C@H](NC(=O)[C@@H]1CCCN1C(=O)[C@@H]1CSSCCC(=O)N[C@@H](Cc2ccc(O)cc2)C(=O)N[C@@H]([C@@H](C)CC)C(=O)N[C@@H](CCC(N)=O)C(=O)N[C@@H](CC(N)=O)C(=O)N1)C(=O)NCC(N)=O`, the figures for the 50% effective concentration (EC50) in experiment [1], in experiment [2] and in experiment [3] were 0.027 nM, 3.1 nM and 0.55 nM, respectively. Besides, the Ratio EC50 came out at 120 in experiment [4] and 20 in experiment [5].
In the case of `CC[C@H](C)[C@@H]1NC(=O)[C@H](Cc2ccc(O)cc2)NC(=O)CCSSC[C@@H](C(=O)N[C@@H](CC(C)C)C(=O)N[C@@H](CC(C)C)C(=O)NCC(N)=O)NC(=O)[C@H](CC(N)=O)NC(=O)[C@H](CCC(N)=O)NC1=O` ([Mpa]YIQNCLLG-NH2; disulfide 1-6), the EC50 is 3.4 nM in experiment [1], over 100 nM in experiment [2] and over 100 nM in experiment [3]. The Ratio EC50 in experiment [4] and in experiment [5] was over 10 in each case.
